Data on four compounds can be found in article PMC3460366, “Synthesis and Antibacterial Evaluation of a New Series of N-Alkyl-2-alkynyl/(E)-alkenyl-4-(1H)-quinolones” (Molecules, 2012).

Series [1] addresses T1, M. tuberculosis MurE ligase (Mycobacterium tuberculosis, UniProt P9WJL3).
T1 construct: made in house; host or cells: E. coli BL21(DE3)pLysS
The arrangement: method as in PMID 21622974. The settings on record: positive control; read-out: IC50 Mtb MurE; cited from earlier work.

The subject of series [2] is M. smegmatis (ATCC 14468). The experiment in a line: Microtiter broth dilution MIC against M. smegmatis (ATCC 14468). The settings on record: Mycolicibacterium smegmatis, ATCC14468, 72 h, 37 °C, MTT. It is filed as cell-based.
The test system of the next series is M. fortuitum (ATCC 6841). Nature of the series: Broth dilution MIC against M. fortuitum. It is filed as cell-based. The settings on record: Mycolicibacterium fortuitum, ATCC6841, 72 h. (In broth dilution the organism is exposed to a series of concentrations in liquid medium.)
Another series concerns S. aureus EMRSA-15. Nature of the series: Broth dilution MIC against EMRSA-15. The format is cell-based. The settings on record: Staphylococcus aureus, EMRSA15, 18 h.
The test system of series [3] is M. bovis BCG (ATCC 35734). The experiment in a line: microbe, parasite or virus in culture. The format is cell-based. The settings on record: Mycobacterium tuberculosis variant bovis BCG, 336 h, read-out: MIC M. bovis BCG.
In series [4] the target is T1, M. tuberculosis MurE ligase. The experiment in a line: M. tuberculosis MurE inhibition assay (phosphate colorimetric detection). The format is biochemical. The settings on record: tested at 1000, 300, 100 and 30 µM; IC50 from plot of percent inhibition vs. concentration; read-out: IC50 Mtb MurE.
Another series relates to S. aureus EMRSA-16. Nature of the series: Broth dilution MIC against EMRSA-16. It is filed as cell-based. The settings on record: Staphylococcus aureus, EMRSA16, 18 h.
The subject of series [5] is human diploid embryonic lung cell line MRC-5. Nature of the series: XTT cytotoxicity assay on MRC-5 cells. It is filed as cell-based. The settings on record: for Metabolic active MRC-5 cells (%): XTT. As for the experimental part:
In order to assess the cytotoxicity of these novel quinolone derivatives, the effect on the viability of a human lung fibroblast cell line MRC-5, was measured using XTT proliferation assay. […] In addition, the position of the triple bond in the side chain seems to have a significant influence on cytotoxcity which is increased in compounds with a triple bond more distant to the quinolone nucleus. This can be concluded by comparing results of 8l, 8n, 8p, and 8r having similar antimycobacterial activity on M. smegmatis but different cytotoxcity depending on triple bond position.
The cytotoxic activity of the synthetic compounds was determined by means of an XTT Cell Proliferation Kit II (Roche Diagnostics, Mannheim, Germany) using the human diploid embryonic lung cell line MRC-5 [11]. The quinolone derivatives were tested at concentrations of 100, 60, 30 and 10 µM in triplicate and the percentage of viable cells at each concentration was determined by comparing with the control.
(Tetrazolium dyes change colour on reduction, which living cells bring about.)

The next series has as its system M. phlei (ATCC 11758). The experiment in a line: Broth dilution MIC against M. phlei. It is filed as cell-based. The settings on record: Mycolicibacterium phlei, ATCC11758, 72 h.
A further series deals with EMRSA-15 and -16. The experiment in a line: Broth dilution MIC against epidemic MRSA strains. It is filed as cell-based, S. aureus. The settings on record: Staphylococcus aureus, range over both strains and the compounds named.
A further series concerns M. smegmatis mc^2155. The experiment in a line: Broth dilution MIC against M. smegmatis mc^2155. The settings on record: Mycolicibacterium smegmatis, 72 h. The format is cell-based.

Molecules are shown by their SMILES. ≈ marks a conversion by molar mass, not a printed value. Where “and” joins values, the source holds several entries; their conditions need not be identical. Equal entries are not always repeated. Where two headings read alike, the source gives them in different places.

T1 sequence (P9WJL3 whole entry): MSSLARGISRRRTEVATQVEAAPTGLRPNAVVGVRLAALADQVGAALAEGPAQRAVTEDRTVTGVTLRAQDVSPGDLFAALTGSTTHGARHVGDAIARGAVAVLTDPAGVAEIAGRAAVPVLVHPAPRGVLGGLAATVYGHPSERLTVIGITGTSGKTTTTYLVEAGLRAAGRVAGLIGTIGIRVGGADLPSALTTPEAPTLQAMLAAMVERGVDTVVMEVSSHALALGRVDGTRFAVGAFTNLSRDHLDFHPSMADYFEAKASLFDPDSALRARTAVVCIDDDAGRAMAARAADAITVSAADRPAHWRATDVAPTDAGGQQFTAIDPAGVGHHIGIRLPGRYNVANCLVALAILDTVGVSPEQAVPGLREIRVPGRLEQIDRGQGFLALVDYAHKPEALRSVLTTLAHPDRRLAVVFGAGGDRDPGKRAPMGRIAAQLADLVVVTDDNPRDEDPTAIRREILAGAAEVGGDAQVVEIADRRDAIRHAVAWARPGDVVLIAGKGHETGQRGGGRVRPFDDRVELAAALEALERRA

For orientation: IC50 means the midpoint of a concentration-inhibition curve. As for `CCCCCCCC/C=C\CCCCc1cc(=O)c2ccccc2n1C` [1-Methyl-2-[(5Z)-tetradecenyl]-4(1H)-quinolone], in series [1], the IC50 is 36 µM.

As to `CCCCCCCCC#CCCc1cc(=O)c2ccccc2n1CCC` [Compound 8l, 1-(n-Propyl)-2-(3'-dodecynyl)-4(1H)-quinolone], the MIC in series [2] was 1 µg/mL and 2.8 µM; in the series with M. fortuitum (ATCC 6841), 2 µg/mL and 5.7 µM; in the series on S. aureus EMRSA-15, 2 µg/mL and 5.7 µM; in [3] it was 25 µg/mL and 71.2 µM; against S. aureus EMRSA-16, 8 µg/mL and 22.8 µM; in the series on M. phlei (ATCC 11758), 4 µg/mL and 11.4 µM. In addition, the MIC against EMRSA-15 and -16 was 2 µg/mL to 8 µg/mL and 5.5 µM to 22.8 µM. Besides, the IC50 in series [4] is 263 µM. Moreover, the “Metabolic active MRC-5 cells (%)” value in series [5] (10 µM) amounted to 100 ± 0.31%; in series [5] (30 µM), 99.1 ± 2.32%; in [5] (60 µM) it was 69.1 ± 8.04%; in series [5] (100 µM), 9.0 ± 6.85%.

Consider `CCCCCCCCC#CCCc1cc(=O)c2ccccc2n1CCCC` [Compound 8m, 1-(n-Butyl)-2-(3'-dodecynyl)-4(1H)-quinolone], for which the MIC is 2 µg/mL and 5.5 µM in the series with M. smegmatis mc^2155; 2 µg/mL and 5.5 µM in series [2]; 2 µg/mL and 5.5 µM against M. fortuitum (ATCC 6841); 2 µg/mL and 5.5 µM in the series with S. aureus EMRSA-15; 25 µg/mL and 68.5 µM in series [3]; 4 µg/mL and 10.9 µM in the series with S. aureus EMRSA-16. In addition, the MIC was 4 µg/mL and 10.9 µM in the series with M. phlei (ATCC 11758); 2 µg/mL to 8 µg/mL and 5.5 µM to 22.8 µM against EMRSA-15 and -16. Besides, the IC50 in series [4] turned out to be 235 µM. For the same compound, the “Metabolic active MRC-5 cells (%)” value in [5] (10 µM) came to 94.9 ± 3.18%; in series [5] (30 µM), 89.7 ± 2.46%; in series [5] (60 µM), 67.5 ± 3.19%; in series [5] (100 µM), 0.4 ± 0.02%.

Take `CCCCCCCCCCC#Cc1cc(=O)c2ccccc2n1C` [Compound 8n, 1-Methyl-2-(1'-dodecynyl)-4(1H)-quinolone]: the MIC was 1 µg/mL and 3.1 µM against M. smegmatis mc^2155; 0.5 µg/mL (≈ 1.55 µM) in [2]; 0.5 µg/mL and 1.5 µM in the series with M. fortuitum (ATCC 6841); 2 µg/mL and 6.2 µM against S. aureus EMRSA-15; 25 µg/mL and 77.4 µM in series [3]; 4 µg/mL and 12.4 µM with S. aureus EMRSA-16. Further, the MIC was 1 µg/mL and 3.1 µM against M. phlei (ATCC 11758); 2 µg/mL to 8 µg/mL and 5.5 µM to 22.8 µM against EMRSA-15 and -16. The IC50 in [4] is 251 µM. The “Metabolic active MRC-5 cells (%)” value in series [5] (10 µM) is on record as 101 ± 0.85%; in series [5] (30 µM) it was 100 ± 0.72%; in series [5] (60 µM), 100 ± 0.81%; in series [5] (100 µM), 100 ± 0.82%. Moreover, the “toxicity to MRC-5 cell line (in words)” value in [5] (at / up to 100 µM) was “devoid of toxicity”.
